Read-outs that look alike come from different tables or passages of the source.
How the values were obtained:
IRAK4 [1] = molecular target: T1, IRAK4 (Homo sapiens (Human), UniProt Q9NWZ3); experiment: IRAK4 Degradation HiBiT Assay; conditions: HiBiT-tagged Jurkat cells, 4 hrs; for Dmax: Jurkat; for DC50: read-out: Cellular IRAK4 HiBiT: DC50
Target sequence in this assay (Q9NWZ3 whole entry): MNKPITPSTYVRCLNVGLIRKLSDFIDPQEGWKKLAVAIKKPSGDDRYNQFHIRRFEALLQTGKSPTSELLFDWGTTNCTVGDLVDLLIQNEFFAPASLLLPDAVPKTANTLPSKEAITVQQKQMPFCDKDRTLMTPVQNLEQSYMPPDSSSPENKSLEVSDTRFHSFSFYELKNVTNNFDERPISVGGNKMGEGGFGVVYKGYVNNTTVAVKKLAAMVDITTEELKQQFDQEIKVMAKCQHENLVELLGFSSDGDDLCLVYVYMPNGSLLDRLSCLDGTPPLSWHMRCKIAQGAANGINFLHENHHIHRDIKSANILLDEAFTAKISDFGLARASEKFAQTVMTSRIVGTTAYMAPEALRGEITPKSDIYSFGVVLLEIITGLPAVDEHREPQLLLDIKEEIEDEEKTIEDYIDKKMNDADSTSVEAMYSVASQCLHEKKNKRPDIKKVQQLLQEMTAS
Description: Compound dilution series (11-point, 3.16-fold dilutions in DMSO, columns 1-11 and 12-22) at 500× the final required concentrations were prepared in Labcyte LDV 384-well plates (cat. no. LP-0200) using a Labcyte Echo 550 Liquid Handler. The 500× solutions ranged from 5 mM to 0.5 μM (final assay concentration range 10 μM to 0.1 nM). Using the Echo, the 500× solutions were stamped into white, 384-well assay plates (Corning, cat. no. 3570) at 60 nL/well. […] C-terminal HiBiT-tagged Jurkat cells (polyclonal cell line or clone 8D5) were plated at 1×10^6 cells/mL, 30 μL/well (3×10^4 cells/well) in complete RPMI (10% FBS, 1% L-glutamine). Cells were incubated for 4 hrs at 32° C./6% CO2.
Following incubation, 30 uL of complete Nano-Glo HiBiT Lytic Detection Reagent (Nano-Glo HiBiT Lytic Buffer with 1:50 Nano-Glo HiBiT Lytic Substrate and 1:100 LgBiT Protein; Promega cat. no. N3040) was added. Cells were further incubated for 10 min at room temperature (RT). Luminescence units (LU) were read on an EnVision plate reader (Perkin Elmer, 0.1 sec per well). Percent IRAK4 remaining per sample was calculated as follows:
Using Graphpad Prism, % IRAK4 remaining values were plotted as a function of compound concentration.

IRAK4 [2] = molecular target: T1, IRAK4; experiment: IRAK4 Biochemical HTRF Kinase Assay; conditions: read-out: IRAK4 HTRF biochemical: IC50
Method in brief: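 HTRF KinEASE STK S1 format measuring IRAK4 phosphorylation of biotinylated peptide; reaction solution of 5 μM STK-S1, 10 mM ATP, 10 mM MgCl2 added (stock, to 10 μl final), 90 min at ambient temperature, detection 60 min. IC50 from sixteen-point duplicate curves by non-linear regression.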
Target sequence in this assay (Q9NWZ3 whole entry, species assumed): as the sequence (Q9NWZ3 whole entry) above

[3] = read-out: Cellular IRAK4 HiBiT: Dmax, Table 4
[4] = read-out: Cellular IRAK4 HiBiT: Dmax, Table 5, multiple runs

Compound	Dmax (IRAK4 [1]; [3])	Dmax (IRAK4 [1]; [4])	DC50 (IRAK4 [1]; Table 4)	DC50 (IRAK4 [1]; Table 5, multiple runs)	IC50 (IRAK4 [2]; Table 4)	IC50 (IRAK4 [2]; Table 5, multiple runs)
N#Cc1cnn2c(-c3cc(NC4CCOCC4)c(-c4nnc(C56CCC(NC(=O)CCOCCOCCOCCNc7cccc8c7C(=O)N(C7CCC(=O)NC7=O)C8=O)(CC5)CC6)s4)cn3)ccc2c1 (centres unmarked) [Example 2, N-(4-(5-(6-(3-cyanopyrrolo[1,2-b]pyridazin-7-yl)-4-((tetrahydro-2H-pyran-4-yl)amino)pyridin-3-yl)-1,3,4-thiadiazol-2-yl)bicyclo[2.2.2]octan-1-yl)-3-(2-(2-(2-((2-(2,6-dioxopiperidin-3-yl)-1,3-dioxoisoindolin-4-yl)amino)ethoxy)ethoxy)ethoxy)propanamide]	71%	75%	27.8 nM	27.2 nM	1.6 nM	1.8 nM
CC(C)Nc1cc(-c2ccc3cc(C#N)cnn23)ncc1-c1nnc(N2CCN(C(=O)C3CCN(CC4CCN(c5ccc6c(=O)n(C7CCC(=O)NC7=O)ccc6c5)CC4)CC3)CC2)s1 (centres unmarked) [Example 21, 7-(5-(5-(4-(1-((1-(2-(2,6-dioxopiperidin-3-yl)-1-oxo-1,2-dihydroisoquinolin-6-yl)piperidin-4-yl)methyl)piperidine-4-carbonyl)piperazin-1-yl)-1,3,4-thiadiazol-2-yl)-4-(isopropylamino)pyridin-2-yl)pyrrolo[1,2-b]pyridazine-3-carbonitrile]	103%	101%	251 nM	251 nM	0.5 nM	0.5 nM
CC(C)Nc1cc(-c2ccc3cc(C#N)cnn23)ncc1-c1nnc(N2CCN(C3CCN(C(=O)CNc4cccc5c4C(=O)N(C4CCC(=O)NC4=O)C5=O)CC3)CC2)s1 (centres unmarked) [Example 74, 7-(5-(5-(4-(1-((2-(2,6-dioxopiperidin-3-yl)-1,3-dioxoisoindolin-4-yl)glycyl)piperidin-4-yl)piperazin-1-yl)-1,3,4-thiadiazol-2-yl)-4-(isopropylamino)pyridin-2-yl)pyrrolo[1,2-b]pyridazine-3-carbonitrile]		82%		28.9 nM		2.5 nM
CNc1cc(-c2ccc3cc(C#N)cnn23)ncc1-c1nnc([C@H]2CC[C@H](NC(=O)[C@H]3C[C@@H](OCCNc4cccc5c4C(=O)N(C4CCC(=O)NC4=O)C5=O)C3)CC2)s1 (stereo partly drawn) [Example 69, (1s,3S)—N-((1r,4R)-4-(5-(6-(3-cyanopyrrolo[1,2-b]pyridazin-7-yl)-4-(methylamino)pyridin-3-yl)-1,3,4-thiadiazol-2-yl)cyclohexyl)-3-(2-((2-(2,6-dioxopiperidin-3-yl)-1,3-dioxoisoindolin-4-yl)amino)ethoxy)cyclobutane-1-carboxamide]	98%	73%	12.6 nM	6.71 nM	0.81 nM	0.9 nM
CC(C)Nc1cc(-c2ccc3cc(C#N)cnn23)ncc1-c1nnc(N2CCN(C(=O)CCOCCNc3cccc4c3C(=O)N(C3CCC(=O)NC3=O)C4=O)CC2)s1 (centres unmarked) [Example 7, 7-(5-(5-(4-(3-(2-((2-(2,6-dioxopiperidin-3-yl)-1,3-dioxoisoindolin-4-yl)amino)ethoxy)propanoyl)piperazin-1-yl)-1,3,4-thiadiazol-2-yl)-4-(isopropylamino)pyridin-2-yl)pyrrolo[1,2-b]pyridazine-3-carbonitrile]	39%	39%	228 nM	229 nM	9.2 nM	9.2 nM
CC(C)Nc1cc(-c2ccc3cc(C#N)cnn23)ncc1-c1nnc(N2CCN(C3CCN(C(=O)Cc4cccc5c4CN(C4CCC(=O)NC4=O)C5=O)CC3)CC2)s1 (centres unmarked) [Example 76, 7-(5-(5-(4-(1-(2-(2-(2,6-dioxopiperidin-3-yl)-1-oxoisoindolin-4-yl)acetyl)piperidin-4-yl)piperazin-1-yl)-1,3,4-thiadiazol-2-yl)-4-(isopropylamino)pyridin-2-yl)pyrrolo[1,2-b]pyridazine-3-carbonitrile]		100%		13.1 nM		0.8 nM

The next lines start with the values.

Dmax (IRAK4 [1]; [3])	Dmax (IRAK4 [1]; [4])	DC50 (IRAK4 [1]; Table 4)	DC50 (IRAK4 [1]; Table 5, multiple runs)	IC50 (IRAK4 [2]; Table 4)	IC50 (IRAK4 [2]; Table 5, multiple runs)	Compound
	111%		51.4 nM		0.9 nM	CNc1cc(-c2ccc3cc(C#N)cnn23)ncc1-c1nnc([C@H]2CC[C@@H](NC(=O)C3CCN(c4ccc5c(c4)C(=O)N(C4CCC(=O)NC4=O)C5=O)CC3)CC2)s1 (some centres unmarked) [Example 133, N-((1s,4s)-4-(5-(6-(3-cyanopyrrolo[1,2-b]pyridazin-7-yl)-4-(methylamino)pyridin-3-yl)-1,3,4-thiadiazol-2-yl)cyclohexyl)-1-(2-(2,6-dioxopiperidin-3-yl)-1,3-dioxoisoindolin-5-yl)piperidine-4-carboxamide]
	96%		17.1 nM		0.3 nM	CNc1cc(-c2ccc3cc(C#N)cnn23)ncc1-c1nnc(N2CCC(N3CCN(C(=O)c4ccc5c(c4)C(=O)N(C4CCC(=O)NC4=O)C5=O)CC3)CC2)s1 (centres unmarked) [Example 186, 7-(5-(5-(4-(4-(2-(2,6-dioxopiperidin-3-yl)-1,3-dioxoisoindoline-5-carbonyl)piperazin-1-yl)piperidin-1-yl)-1,3,4-thiadiazol-2-yl)-4-(methylamino)pyridin-2-yl)pyrrolo[1,2-b]pyridazine-3-carbonitrile]
	109%		124 nM		2.1 nM	CNc1cc(-c2ccc3cc(C#N)cnn23)ncc1-c1nnc(C23CCC(NC(=O)CCCCCC(=O)N[C@H](C(=O)N4C[C@H](O)C[C@H]4C(=O)N[C@@H](C)c4ccc(-c5scnc5C)cc4)C(C)(C)C)(CC2)CC3)s1 [Example 131, N1-(4-(5-(6-(3-cyanopyrrolo[1,2-b]pyridazin-7-yl)-4-(methylamino)pyridin-3-yl)-1,3,4-thiadiazol-2-yl)bicyclo[2.2.2]octan-1-yl)-N7-((S)-1-((2S,4R)-4-hydroxy-2-(((S)-1-(4-(4-methylthiazol-5-yl)phenyl)ethyl)carbamoyl)pyrrolidin-1-yl)-3,3-dimethyl-1-oxobutan-2-yl)heptanediamide]
	80%		508 nM		1.5 nM	CNc1cc(-c2ccc3cc(C#N)cnn23)ncc1-c1nnc(C2CCC(NC(=O)[C@H]3C[C@H]3C(=O)N[C@H](C(=O)N3C[C@H](O)C[C@H]3C(=O)N[C@@H](C)c3ccc(-c4scnc4C)cc3)C(C)(C)C)CC2)s1 (mixture of isomers) [Example 147, (1RS,2SR)—N1-((1r,4R)-4-(5-(6-(3-cyanopyrrolo[1,2-b]pyridazin-7-yl)-4-(methylamino)pyridin-3-yl)-1,3,4-thiadiazol-2-yl)cyclohexyl)-N2—((S)-1-((2S,4R)-4-hydroxy-2-(((S)-1-(4-(4-methylthiazol-5-yl)phenyl)ethyl)carbamoyl)pyrrolidin-1-yl)-3,3-dimethyl-1-oxobutan-2-yl)cyclopropane-1,2-dicarboxamide]
			> 970 nM		1.6 nM	CNc1cc(-c2ccc3cc(C#N)cnn23)ncc1-c1nnc(N2CCN(C[C@H]3CCN(c4ccc5c(c4)n(C)c(=O)n5C4CCC(=O)NC4=O)C3)CC2)s1 (stereo partly drawn) [Example 91, 7-(5-(5-(4-(((3R)-1-(1-(2,6-dioxopiperidin-3-yl)-3-methyl-2-oxo-2,3-dihydro-1H-benzo[d]imidazol-5-yl)pyrrolidin-3-yl)methyl)piperazin-1-yl)-1,3,4-thiadiazol-2-yl)-4-(methylamino)pyridin-2-yl)pyrrolo[1,2-b]pyridazine-3-carbonitrile]

From patent US12528814B2, “Bifunctional degraders of interleukin-1 receptor-associated kinases and therapeutic use thereof” (NURIX THERAPEUTICS, INC., priority 2020, dated 2026)
